Publication PMC7911295, “Metabolism of Zearalenone in the Rumen of Dairy Cows with and without Application of a Zearalenone-Degrading Enzyme” (Toxins, 2021)

What was measured:
[1] = Feeding trial in rumen-fistulated dairy cows: ZEN and ZEN metabolites in rumen fluid from reticulum, dorsal mat layer and ventral sac; format: in vivo, Holstein Friesian cows; conditions: for Detection in rumen fluid: any reticulorumen location
Excerpt: (§1) Ruminal metabolism of ZEN with and without supplementation of ZenA was investigated in four rumen-fistulated Holstein Friesian cows (sex: female; age at start: 5.9 ± 1.0 years; body weight at start: 863 ± 65 kg; physiological stage: non-lactating; general health: good, non-gestating; identification procedure: ear tag 4-digit code). The cows were part of the dairy herd of VetFarm (Teaching and Research Farm) of the University of Veterinary Medicine Vienna in Kremesberg, Austria. All procedures related to these experiments were performed according to Austrian law and following the European Guidelines for the Care and Use of Animals for Research Purpose. The animal experiment was approved by ethics and animal welfare commission of the University of Veterinary Medicine, Vienna and the Austrian Federal Ministry of Education, Science and Research (68.205/0156-WF/V/3b/2017, 30.08.2017).
(§2) In our trial setup, each animal was considered an experimental unit (n = 4). Each animal received the same treatment and served as its own control. First, each animal received ZEN-contaminated concentrate feed. Following a 48-h washout period, each animal received ZEN-contaminated concentrate feed supplemented with ZenA. In brief, for acclimatization, on the day prior to the start of the feeding trial, each animal was manually fed 4 × 500 g of control concentrate (Table 4 and Table 5). Thereafter, animals were manually fed (i) 1 × 500 g concentrate contaminated with ZEN and 3 × 500 g control concentrate on experimental day 1 (ZEN treatment), (ii) 4 × 500 g control concentrate on day 2 (ZEN washout), (iii) 1 × 500 g ZEN-contaminated concentrate supplemented with ZenA and 3 × 500 g control concentrate on day 3 (ZEN+ZenA treatment), and (iv) 4 × 500 g control concentrate on day 4 (ZEN+ZenA washout; Table 6). Animals were treated and assessed in the same random order at each experimental time point.
For production of ZEN-contaminated concentrate feed, lyophilizate of ZEN with maltodextrin as a carrier was prepared. To this end, in three parallel preparations, 50 mg ZEN (Fermentek, Jerusalem, Israel) was dissolved in 1 L RO water (pH 12; adjusted with NaOH) using a magnetic stirrer set to 400 rpm and 37 °C for 20 min. Subsequently, 100 g maltodextrin DE19 (Agrana, Vienna, Austria) was added and dissolved by stirring (400 rpm) at room temperature for 10 min. The solution was lyophilized. Lyophilizate was mixed into concentrate feed at an inclusion rate of 2%. The final concentration of ZEN in feed was aimed to be 10 mg/kg and was verified using HPLC-MS/MS analysis as described below. For production of ZEN-contaminated, ZenA-supplemented concentrate, a zearalenone hydrolase ZenA preparation (ZENzyme®; EC 3.1.1.-; BIOMIN Holding GmbH, Getzersdorf, Austria) was mixed into ZEN-contaminated concentrate to achieve an activity of 128 U/kg feed. Same as in the in vitro trial, 1 U of ZenA was defined as the enzyme activity that hydrolyzes 1 μmol ZEN per minute from 15.71 µM ZEN in Teorell Stenhagen buffer adjusted to pH 7.5 containing 0.1 mg/mL bovine serum albumin at 37 °C.
On days 1 and 3 of the trial (ZEN and ZEN+ZenA treatment, respectively), ruminal digesta samples were taken from reticulum, ventral sac and dorsal mat layer (Figure 3) immediately before concentrate feeding (0 h), as well as 15 min, 1 h, 2 h, 4 h, 7 h and 10 h after concentrate feeding (Table 6). On days 2 and 4 of the trial (washout days), ruminal digesta samples were taken immediately before first concentrate feeding (0 h), as well as 10 h after first concentrate feeding (Table 6). Ruminal digesta samples (10 mL) were taken via a rumen fistula from reticulum and ventral sac (10 cm above the bottom of the rumen) using a pump as described previously. Samples were taken from the dorsal mat layer 20 cm below the gas phase and rumen fluid was obtained by manually squeezing the samples as described previously. Samples were mixed 1:2 with acetonitrile by vortexing. […]

[2] = Feeding trial in rumen-fistulated dairy cows: ZEN and ZEN metabolites in feces; format: in vivo, Holstein Friesian cows; conditions: for Percentage of concentration relative to the sum of ZEN and ZEN metabolite concentrations: feces
Excerpt: as §1, §2
On days 1 and 3 of the experiment, feces samples were taken from the rectum immediately before concentrate feeding (0 h), as well as 10 h after concentrate feeding (Table 6) and stored at −20 °C. Aliquots (500 mg) of thoroughly homogenized feces samples were extracted for HPLC-MS/MS analysis according to the method described by Binder and coworkers.
HPLC-MS/MS analysis of ZEN, α-ZEL, β-ZEL, HZEN and DHZEN in rumen fluid and feces was performed as described for the in vitro rumen fermentation experiment (see section “In Vitro Rumen Fermentation Experiment”, subsection “Analysis of ZEN and its Metabolites”), with the following modifications. Chromatographic separation was performed with a flow rate of 0.6 mL/min, a duration of 4 min and an injection volume was 1 µL. The gradient started at 30% B which was held for 0.3 min. Subsequently, the proportion of B was increased to 80% from 0.3 to 2 min, and increased to 100% from 2 to 2.1 min. […] LODs for ZEN, α-ZEL, β-ZEL, HZEN and DHZEN in rumen fluid were 2.83 nmol/L (0.9 µg/L), 2.81 nmol/L (0.9 µg/L), 2.81 nmol/L (0.9 µg/L), 2.68 nmol/L (0.9 µg/L) and 10.27 nmol/L (3 µg/L), respectively. LOQs for ZEN, α-ZEL, β-ZEL, HZEN and DHZEN in rumen fluid were 9.43 nmol/L (3 µg/L), 9.37 nmol/L (3 µg/L), 9.37 nmol/L (3 µg/L), 8.93 nmol/L (3 µg/L) and 30.81 nmol/L (9 µg/L), respectively. LODs for ZEN, α-ZEL, β-ZEL, HZEN and DHZEN in feces were 0.03 nmol/g (8.4 ng/g), 0.03 nmol/g (8.4 ng/g), 0.03 nmol/g (8.4 ng/g), 0.03 nmol/g (8.4 ng/g) and 0.10 nmol/g (28 ng/g), respectively. LOQs for ZEN, α-ZEL, β-ZEL, HZEN and DHZEN in feces were 0.09 nmol/g (28 ng/g), 0.09 nmol/g (28 ng/g), 0.09 nmol/g (28 ng/g), 0.08 nmol/g (28 ng/g) and 0.29 nmol/g (84 ng/g), respectively.

[3] = for Detection in reactors: reactors incubated with ZEN without ZenA, any time point
MCF-7 cell = system: MCF-7 cell; set-up: method as in PMID 12596876, PMID 31434326; conditions: cited from earlier work
estrogen-sensitive yeast = system: estrogen-sensitive yeast; set-up: method as in PMID 31434326; conditions: cited from earlier work
pigs = system: pigs; set-up: method as in PMID 31434326; conditions: in contrast to ZEN; cited from earlier work
[4] = reticulorumen, ZEN treatment, 15 min after feeding, from median of 3 locations
[5] = reticulorumen, ZEN treatment, 1 h
[6] = reticulorumen, ZEN treatment, 4 h
[7] = reticulorumen, ZEN treatment, 7 h
[8] = reticulorumen, ZEN treatment, 10 h
[9] = reticulorumen, ZEN treatment, 24 h
[10] = reticulorumen, ZEN+ZenA treatment, 15 min
[11] = reticulorumen, ZEN+ZenA treatment, 1 h
[12] = reticulorumen, ZEN+ZenA treatment, 4 h
[13] = reticulorumen, ZEN+ZenA treatment, 7 h
[14] = reticulorumen, ZEN+ZenA treatment, 10 h
[15] = ZEN+ZenA treatment, 0 h (48 h after ZEN treatment)

C[C@H](O)CCCC(=O)CCC/C=C/c1cc(O)cc(O)c1C(=O)O [HZEN, hydrolyzed zearalenone]
Detection in rumen fluid ([1]; ZEN treatment): not detected
Percentage of concentration relative to the sum of ZEN and ZEN metabolite concentrations [1, 4]: 0.0%
Percentage of concentration relative to the sum of ZEN and ZEN metabolite concentrations [1, 5]: 0.0%
Percentage of concentration relative to the sum of ZEN and ZEN metabolite concentrations [1, 6]: 0.0%
Percentage of concentration relative to the sum of ZEN and ZEN metabolite concentrations [1, 7]: 0.0%
Percentage of concentration relative to the sum of ZEN and ZEN metabolite concentrations [1, 8]: 0.0%
Percentage of concentration relative to the sum of ZEN and ZEN metabolite concentrations [1, 9]: 0.0%
Not detected anymore at (time after concentrate feeding) ([1]; reticulorumen, ZEN+ZenA treatment): 24 h
Percentage of concentration relative to the sum of ZEN and ZEN metabolite concentrations [1, 10]: 94.1%
Percentage of concentration relative to the sum of ZEN and ZEN metabolite concentrations [1, 11]: 100.0%
Percentage of concentration relative to the sum of ZEN and ZEN metabolite concentrations [1, 12]: 100.0%
Percentage of concentration relative to the sum of ZEN and ZEN metabolite concentrations [1, 13]: 100.0%
Percentage of concentration relative to the sum of ZEN and ZEN metabolite concentrations [1, 14]: 100.0%
Percentage of concentration relative to the sum of ZEN and ZEN metabolite concentrations ([2]; ZEN treatment, 10 h): 0.0%
Percentage of concentration relative to the sum of ZEN and ZEN metabolite concentrations [2, 15]: 0.0%
Percentage of concentration relative to the sum of ZEN and ZEN metabolite concentrations ([2]; ZEN+ZenA treatment, 10 h): 31.9%
Detection in reactors [3]: not detected
Estrogenic response (MCF-7 cell): did not elicit an estrogenic response
Estrogenic response (estrogen-sensitive yeast): did not elicit an estrogenic response
Effect on reproductive tract morphology or expression of ZEN-responsive microRNAs (pigs): did not affect

C[C@H](O)CCCC(=O)CCC/C=C/c1cc(O)cc(O)c1 [DHZEN, decarboxylated hydrolyzed zearalenone]
Detection in rumen fluid ([1]; ZEN treatment): not detected
Percentage of concentration relative to the sum of ZEN and ZEN metabolite concentrations [1, 4]: 0.0%
Percentage of concentration relative to the sum of ZEN and ZEN metabolite concentrations [1, 5]: 0.0%
Percentage of concentration relative to the sum of ZEN and ZEN metabolite concentrations [1, 6]: 0.0%
Percentage of concentration relative to the sum of ZEN and ZEN metabolite concentrations [1, 7]: 0.0%
Percentage of concentration relative to the sum of ZEN and ZEN metabolite concentrations [1, 8]: 0.0%
Percentage of concentration relative to the sum of ZEN and ZEN metabolite concentrations [1, 9]: 0.0%
Percentage of concentration relative to the sum of ZEN and ZEN metabolite concentrations [1, 10]: 0.0%
Percentage of concentration relative to the sum of ZEN and ZEN metabolite concentrations [1, 11]: 0.0%
Percentage of concentration relative to the sum of ZEN and ZEN metabolite concentrations [1, 12]: 0.0 (traces) %
Percentage of concentration relative to the sum of ZEN and ZEN metabolite concentrations [1, 13]: 0.0 (traces) %
Percentage of concentration relative to the sum of ZEN and ZEN metabolite concentrations [1, 14]: 0.0 (traces) %
Detection in feces ([2]; ZEN and ZEN+ZenA treatments, any sample): not detected
Percentage of concentration relative to the sum of ZEN and ZEN metabolite concentrations ([2]; ZEN treatment, 10 h): 0.0%
Percentage of concentration relative to the sum of ZEN and ZEN metabolite concentrations [2, 15]: 0.0%
Percentage of concentration relative to the sum of ZEN and ZEN metabolite concentrations ([2]; ZEN+ZenA treatment, 10 h): 0.0%
First detected (time after start of incubation) ([3]; reactors incubated with ZEN and ZenA (100 U/kg feed)): 2 h
Detection in reactors [3]: not detected
Estrogenic response (MCF-7 cell): did not elicit an estrogenic response
Estrogenic response (estrogen-sensitive yeast): did not elicit an estrogenic response
Effect on reproductive tract morphology or expression of ZEN-responsive microRNAs (pigs): did not affect
